This is an account of results in US7678918B2, “Intermediates for imidazonaphthyridines” (3M Innovative Properties Company, priority 1997, dated 2010).

Each structure is given as a SMILES string.

Data set [1] relates to TNF. The experiment in a line: Cytokine Induction in Human Cells: tumor necrosis factor (TNF) secreted by PBMCs, ELISA. Note: call rule not given here. In kind it is cell-based. Particulars: 18 to 24 hours. The method, boiled down:
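Human donor PBMCs at 1.5-2×10^6 cells/mL in RPMI with 10% FBS were exposed to compound, generally at 0.1 to 100 μM (≤1% DMSO final), for 18 to 24 h at 37 °C. Secreted TNF in supernatant was measured by ELISA and reported as pg/mL.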

Data set [2] deals with IFN. The experiment in a line: Cytokine Induction in Human Cells: interferon (IFN) secreted by PBMCs, A549/encephalomyocarditis bioassay. Note: call rule not given here. The class given is cell-based. Particulars: 18 to 24 hours. The method, boiled down:
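Human PBMCs from healthy donors at 1.5-2×10^6 cells/mL in RPMI with 10% FBS, exposed to compounds (typically 0.1 to 100 μM, ≤1% DMSO) for 18 to 24 h at 37° C. Secreted IFN measured by A549/encephalomyocarditis virus cytopathic-effect bioassay, in alpha reference units/mL against NIH human leukocyte IFN standard.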

A word on the melting point: it is the temperature of the solid-liquid transition. `CCCCc1nc2c(N)nc3cccnc3c2n1CCNC(=O)c1c(C)noc1C` [Example 103, N-[2-(4-Amino-2-butyl-1H-imidazo[4,5-c][1,5]naphthyridin-1-yl)ethyl]-3,5-dimethyl-4-isoxazolecarboxamide] showed a melting point of 188 to 189 °C. Besides, the TNF induction entry in data set [1] (Dose Concentration 0.1 μM) is reported as “−”. The TNF induction entry in data set [1] (Dose Concentration 1.0 μM) is “−”. The TNF induction result in data set [1] (Dose Concentration 10.0 μM) is given as “+”. The TNF induction entry in data set [1] (Dose Concentration 100.0 μM) is listed as “+”. Also, the IFN induction entry in data set [2] (Dose Concentration 0.1 μM) is listed as “−”. Moreover, in data set [2] (Dose Concentration 1.0 μM), the IFN induction result is on record as “−”. For the same compound, the IFN induction entry in data set [2] (Dose Concentration 10.0 μM) is recorded as “+”. In addition, the IFN induction result in data set [2] (Dose Concentration 100.0 μM) was “+”.

In turn, `CCCCc1nc2c(N)nc3c(c2n1CCNC(=O)c1cc(C(C)(C)C)c(O)c(C(C)(C)C)c1)NCCC3` [Example 104, N^1-[2-(4-Amino-2-butyl-6,7,8,9-tetrahydro-1H-imidazo[4,5-c][1,5]naphthyridin-1-yl)ethyl]-3,5-di-(1,1-dimethylethyl)-4-hydroxybenzamide] yielded a melting point of 208 to 210 °C. Moreover, in data set [1] (Dose Concentration 0.1 μM), the TNF induction result is recorded as “−”. The TNF induction entry in data set [1] (Dose Concentration 1.0 μM) is “−”. In addition, the TNF induction entry in data set [1] (Dose Concentration 10.0 μM) was “+”. In addition, the TNF induction result in data set [1] (Dose Concentration 100.0 μM) is listed as “−”. In addition, the IFN induction result in data set [2] (Dose Concentration 0.1 μM) was “−”. Further, in data set [2] (Dose Concentration 1.0 μM), the IFN induction result is reported as “+”. Besides, in data set [2] (Dose Concentration 10.0 μM), the IFN induction result is reported as “+”. Moreover, in data set [2] (Dose Concentration 100.0 μM), the IFN induction result was “−”.

In turn, `CCCCc1nc2c(N)nc3cccnc3c2n1CCCCNC(=O)Cn1cc(C)c(O)nc1=O` [Example 108, N^1-[4-(4-Amino-2-butyl-1H-imidazo[4,5-c][1,5]naphthyridin-1-yl)butyl]-2-(4-hydroxy-5-methyl-2-oxo-1,2-dihydro-1-pyrimidinyl)acetamide] returned a melting point of 242 to 244 °C. Moreover, in data set [1] (Dose Concentration 0.1 μM), the TNF induction entry was “±”. Also, the TNF induction result in data set [1] (Dose Concentration 1.0 μM) is “−”. In addition, in data set [1] (Dose Concentration 10.0 μM), the TNF induction result was “+”. Also, the TNF induction entry in data set [1] (Dose Concentration 100.0 μM) is “+”. Besides, in data set [2] (Dose Concentration 0.1 μM), the IFN induction result was “+”. Also, the IFN induction result in data set [2] (Dose Concentration 1.0 μM) is listed as “+”. For the same compound, in data set [2] (Dose Concentration 10.0 μM), the IFN induction entry is “+”. The IFN induction result in data set [2] (Dose Concentration 100.0 μM) is reported as “+”.

With `CCCCc1nc2c(N)nc3cccnc3c2n1CCCCNC(=O)CSc1ncccn1` [Example 109, N^1-[4-(4-Amino-2-butyl-1H-imidazo[4,5-c][1,5]naphthyridin-1-yl)butyl]-2-(2-pyrimidinylsulfanyl)acetamide], the melting point was 156 to 160 °C (dec.). Besides, the TNF induction result in data set [1] (Dose Concentration 0.1 μM) is given as “−”. In data set [1] (Dose Concentration 1.0 μM), the TNF induction entry is “±”. The TNF induction result in data set [1] (Dose Concentration 10.0 μM) is reported as “+”. Further, the TNF induction entry in data set [1] (Dose Concentration 100.0 μM) was “+”. Also, in data set [2] (Dose Concentration 0.1 μM), the IFN induction entry was “+”. In addition, the IFN induction result in data set [2] (Dose Concentration 1.0 μM) is on record as “+”. Also, the IFN induction entry in data set [2] (Dose Concentration 10.0 μM) is reported as “+”. The IFN induction entry in data set [2] (Dose Concentration 100.0 μM) is on record as “+”.

Compound `CCCCc1nc2c(N)nc3cccnc3c2n1CCCCNC(=O)CSc1ccncc1` [Example 110, N^1-[4-(4-Amino-2-butyl-1H-imidazo[4,5-c][1,5]naphthyridin-1-yl)butyl]-2-(4-pyridylsulfanyl)acetamide] yielded a melting point of 127.5 to 129 °C. Moreover, in data set [1] (Dose Concentration 0.1 μM), the TNF induction entry was “−”. Besides, in data set [1] (Dose Concentration 1.0 μM), the TNF induction entry is “+”. In data set [1] (Dose Concentration 10.0 μM), the TNF induction entry is on record as “+”. Further, the TNF induction entry in data set [1] (Dose Concentration 100.0 μM) was “+”. For the same compound, the IFN induction entry in data set [2] (Dose Concentration 0.1 μM) is given as “+”. Besides, in data set [2] (Dose Concentration 1.0 μM), the IFN induction entry is listed as “+”. The IFN induction result in data set [2] (Dose Concentration 10.0 μM) was “+”. For the same compound, the IFN induction entry in data set [2] (Dose Concentration 100.0 μM) was “+”.

Compound `NCCCCn1cnc2c(N)nc3cccnc3c21` [Example 111, 4-(4-amino-1H-imidazo[4,5-c][1,5]naphthyridin-1-yl)butaneamine] yielded a melting point of 161 to 163 °C. The TNF induction result in data set [1] (Dose Concentration 0.1 μM) is “−”. Further, the TNF induction result in data set [1] (Dose Concentration 1.0 μM) is “−”. Moreover, the TNF induction result in data set [1] (Dose Concentration 10.0 μM) is “+”. The TNF induction result in data set [1] (Dose Concentration 100.0 μM) was “+”. In addition, the IFN induction result in data set [2] (Dose Concentration 0.1 μM) was “−”. Besides, the IFN induction entry in data set [2] (Dose Concentration 1.0 μM) is listed as “−”. Moreover, the IFN induction result in data set [2] (Dose Concentration 10.0 μM) was “+”. For the same compound, the IFN induction entry in data set [2] (Dose Concentration 100.0 μM) is “+”.

As for `CCCCc1nc2c(N)nc3cccnc3c2n1CCCCNC(=O)c1ccc(C(OCCN(C)C)c2ccccc2)cc1` (stereo not drawn) [Example 112, N^1-[4-(4-Amino-2-butyl-1H-imidazo[4,5-c][1,5]naphthyridin-1-yl)butyl]-4-{[2-(dimethylamino)ethoxy](phenyl)methyl}benzamide], the melting point lay within 105 to 108 °C. In data set [1] (Dose Concentration 0.1 μM), the TNF induction result is on record as “+”. Also, the TNF induction entry in data set [1] (Dose Concentration 1.0 μM) was “+”. Further, the TNF induction result in data set [1] (Dose Concentration 10.0 μM) is on record as “−”. Besides, in data set [1] (Dose Concentration 100.0 μM), the TNF induction entry was “−”. The IFN induction result in data set [2] (Dose Concentration 0.1 μM) is on record as “+”. Moreover, the IFN induction entry in data set [2] (Dose Concentration 1.0 μM) is listed as “+”. Further, in data set [2] (Dose Concentration 10.0 μM), the IFN induction entry is “+”. Also, the IFN induction result in data set [2] (Dose Concentration 100.0 μM) is given as “±”.

Turning to `CCCCc1nc2c(N)nc3cccnc3c2n1CCNC(=O)Cn1cc(C)c(=O)[nH]c1=O` [Example 114, N^1-[4-(4-Amino-2-butyl-1H-imidazo[4,5-c][1,5]naphthyridin-1-yl)ethyl]-2-(5-methyl-2,4-dioxo-1,2,3,4-tetrahydro-1-pyrimidinyl)acetamide], the melting point was in the range of 241 to 242 °C. The TNF induction entry in data set [1] (Dose Concentration 0.1 μM) is “−”. The TNF induction entry in data set [1] (Dose Concentration 1.0 μM) is given as “−”. The TNF induction entry in data set [1] (Dose Concentration 10.0 μM) is recorded as “+”. In addition, in data set [1] (Dose Concentration 100.0 μM), the TNF induction entry was “+”. Besides, the IFN induction entry in data set [2] (Dose Concentration 0.1 μM) was “−”. The IFN induction result in data set [2] (Dose Concentration 1.0 μM) was “−”. For the same compound, in data set [2] (Dose Concentration 10.0 μM), the IFN induction result was “+”. Also, the IFN induction entry in data set [2] (Dose Concentration 100.0 μM) is recorded as “+”.

In turn, `CCCCc1nc2c(N)nc3cccnc3c2n1CCNC(=O)CCCCCC1NC(=O)NC1C` (stereo not drawn) [Example 115, N^1-[4-(4-Amino-2-butyl-1H-imidazo[4,5-c][1,5]naphthyridin-1-yl)ethyl]-6-(5-methyl-2-oxo-4-imidazolidinyl)hexamide] returned a melting point of 184 to 186 °C. In data set [1] (Dose Concentration 0.1 μM), the TNF induction result is recorded as “−”. Also, the TNF induction result in data set [1] (Dose Concentration 1.0 μM) is “−”. Further, the TNF induction result in data set [1] (Dose Concentration 10.0 μM) is “+”. In data set [1] (Dose Concentration 100.0 μM), the TNF induction entry is “+”. Further, the IFN induction entry in data set [2] (Dose Concentration 0.1 μM) is “−”. In data set [2] (Dose Concentration 1.0 μM), the IFN induction result is reported as “−”. The IFN induction result in data set [2] (Dose Concentration 10.0 μM) is “+”. Also, in data set [2] (Dose Concentration 100.0 μM), the IFN induction entry is given as “+”.
